Test results: PubChem BioAssay AID1918994 (Molecular Pharmacology Branch, DTP, NCI, 2023)
Several values for one entry are separate records, joined by “and”; a condition that tells them apart may be missing. Equal entries are not always repeated. Values belong to the compound of their own block, whether it stands above or below them.

Test system: 292921-168-R-J2-PDC complex spheroid growth
Test: Anticancer human tumor 292921-168-R-J2-PDC patient-derived pancreatic carcinoma cell line growth inhibition [AhR]
Conditions: for viability, T/C: stronger effect = lower value
Procedure, shortened: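 Agents were dosed in half-log steps down from roughly clinical Cmax, or from 10 microM where Cmax was unknown, alone and with AhR antagonists. Read-out: percent test/control growth of tumor spheroids containing HUVEC and MSC stromal cells.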

[1] = curve of first compound, second compound 0.1 µM
[2] = curve of first compound, second compound 0.316 µM
[3] = curve of first compound, second compound 1 µM
[4] = curve of first compound, second compound 3.16 µM
[5] = curve of first compound, second compound 10 µM
[6] = second compound 0.1 µM, first compound 0.00949 µM
[7] = second compound 0.1 µM, first compound 0.03 µM
[8] = second compound 0.1 µM, first compound 0.0949 µM
[9] = second compound 0.1 µM, first compound 0.3 µM
[10] = second compound 0.1 µM, first compound 0.949 µM
[11] = second compound 0.1 µM, first compound 3 µM
[12] = second compound 0.316 µM, first compound 0.00949 µM
[13] = second compound 0.316 µM, first compound 0.03 µM
[14] = second compound 0.316 µM, first compound 0.0949 µM
[15] = second compound 0.316 µM, first compound 0.3 µM
[16] = second compound 0.316 µM, first compound 0.949 µM
[17] = second compound 0.316 µM, first compound 3 µM
[18] = second compound 1 µM, first compound 0.00949 µM
[19] = second compound 1 µM, first compound 0.03 µM
[20] = second compound 1 µM, first compound 0.0949 µM
[21] = second compound 1 µM, first compound 0.3 µM
[22] = second compound 1 µM, first compound 0.949 µM
[23] = second compound 1 µM, first compound 3 µM
[24] = second compound 3.16 µM, first compound 0.00949 µM
[25] = second compound 3.16 µM, first compound 0.03 µM
[26] = second compound 3.16 µM, first compound 0.0949 µM
[27] = second compound 3.16 µM, first compound 0.3 µM
[28] = second compound 3.16 µM, first compound 0.949 µM
[29] = second compound 3.16 µM, first compound 3 µM
[30] = second compound 10 µM, first compound 0.00949 µM
[31] = second compound 10 µM, first compound 0.03 µM
[32] = second compound 10 µM, first compound 0.0949 µM
[33] = second compound 10 µM, first compound 0.3 µM
[34] = second compound 10 µM, first compound 0.949 µM
[35] = second compound 10 µM, first compound 3 µM
[36] = second compound 0.1 µM, first compound 0.0316 µM
[37] = second compound 0.1 µM, first compound 0.1 µM
[38] = second compound 0.1 µM, first compound 0.316 µM
[39] = second compound 0.1 µM, first compound 1 µM
[40] = second compound 0.1 µM, first compound 3.16 µM
[41] = second compound 0.1 µM, first compound 10 µM
[42] = second compound 0.316 µM, first compound 0.0316 µM
[43] = second compound 0.316 µM, first compound 0.1 µM
[44] = second compound 0.316 µM, first compound 0.316 µM
[45] = second compound 0.316 µM, first compound 1 µM
[46] = second compound 0.316 µM, first compound 3.16 µM
[47] = second compound 0.316 µM, first compound 10 µM
[48] = second compound 1 µM, first compound 0.0316 µM
[49] = second compound 1 µM, first compound 0.1 µM
[50] = second compound 1 µM, first compound 0.316 µM
[51] = second compound 1 µM, first compound 1 µM
[52] = second compound 1 µM, first compound 3.16 µM
[53] = second compound 1 µM, first compound 10 µM
[54] = second compound 3.16 µM, first compound 0.0316 µM
[55] = second compound 3.16 µM, first compound 0.1 µM
[56] = second compound 3.16 µM, first compound 0.316 µM
[57] = second compound 3.16 µM, first compound 1 µM
[58] = second compound 3.16 µM, first compound 3.16 µM
[59] = second compound 3.16 µM, first compound 10 µM
[60] = second compound 10 µM, first compound 0.0316 µM
[61] = second compound 10 µM, first compound 0.1 µM
[62] = second compound 10 µM, first compound 0.316 µM
[63] = second compound 10 µM, first compound 1 µM
[64] = second compound 10 µM, first compound 3.16 µM
[65] = second compound 10 µM, first compound 10 µM
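Also: spheroids exposed to compounds for seven days after three days of growth.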

SMILES: O=C(C=Cn1cnc(-c2cc(C(F)(F)F)cc(C(F)(F)F)c2)n1)NNc1cnccn1 + Cc1cncc(-c2nc(NCCc3c[nH]c4ccccc34)c3ncn(C(C)C)c3n2)c1
IC50 [1]: 179 nM
IC50 [2]: 165 nM
IC50 [3]: 194 nM
IC50 [4]: 108 nM
IC50 [5]: 107 nM
viability, T/C [6]: 90.8%
viability, T/C [7]: 85.3%
viability, T/C [8]: 62.6%
viability, T/C [9]: 39.1%
viability, T/C [10]: 23%
viability, T/C [11]: 15.2%
viability, T/C [12]: 91.9%
viability, T/C [13]: 86.2%
viability, T/C [14]: 62.1%
viability, T/C [15]: 36.2%
viability, T/C [16]: 21.2%
viability, T/C [17]: 16.2%
viability, T/C [18]: 91%
viability, T/C [19]: 80.2%
viability, T/C [20]: 62.4%
viability, T/C [21]: 42.5%
viability, T/C [22]: 24.6%
viability, T/C [23]: 13.1%
viability, T/C [24]: 83.6%
viability, T/C [25]: 71%
viability, T/C [26]: 51.5%
viability, T/C [27]: 35.2%
viability, T/C [28]: 21.9%
viability, T/C [29]: 18.9%
viability, T/C [30]: 54.4%
viability, T/C [31]: 58.1%
viability, T/C [32]: 51.2%
viability, T/C [33]: 38.7%
viability, T/C [34]: 35.5%
viability, T/C [35]: 29.1%

SMILES: CC(C)c1c(-c2ccccc2)nc2c(C#N)c[nH]n2c1=O
viability, T/C (compound 0.0316 µM): 113% and 103% (2×)
viability, T/C (compound 0.1 µM): 117% and 104% and 107%
viability, T/C (compound 0.316 µM): 105% (2×) and 106%
viability, T/C (compound 1 µM): 115% and 91% and 98.9%
viability, T/C (compound 3.16 µM): 106% and 102% and 99.9%
viability, T/C (compound 10 µM): 95.3% and 96% and 107%
IC50 (curve of compound): > 10000 nM

SMILES: O=C(c1cc(Cc2n[nH]c(=O)c3ccccc23)ccc1F)N1CCN(C(=O)C2CC2)CC1 + Cc1cncc(-c2nc(NCCc3c[nH]c4ccccc34)c3ncn(C(C)C)c3n2)c1
IC50 [1]: > 10000 nM
IC50 [2]: > 10000 nM
IC50 [3]: > 10000 nM
IC50 [4]: > 10000 nM
IC50 [5]: < 31.6 nM
viability, T/C [36]: 88.1%
viability, T/C [37]: 94.8%
viability, T/C [38]: 85.6%
viability, T/C [39]: 89.7%
viability, T/C [40]: 89.8%
viability, T/C [41]: 70.3%
viability, T/C [42]: 91.6%
viability, T/C [43]: 89.3%
viability, T/C [44]: 88.8%
viability, T/C [45]: 84.7%
viability, T/C [46]: 87.9%
viability, T/C [47]: 65.6%
viability, T/C [48]: 84.2%
viability, T/C [49]: 80.6%
viability, T/C [50]: 80.6%
viability, T/C [51]: 88.2%
viability, T/C [52]: 85.5%
viability, T/C [53]: 61.5%
viability, T/C [54]: 61.6%
viability, T/C [55]: 67.3%
viability, T/C [56]: 69.2%
viability, T/C [57]: 66%
viability, T/C [58]: 68.6%
viability, T/C [59]: 54.2%
viability, T/C [60]: 44%
viability, T/C [61]: 47%
viability, T/C [62]: 44.9%
viability, T/C [63]: 44.5%
viability, T/C [64]: 43.4%
viability, T/C [65]: 37.2%

More lines, main results first:

IC50 [1]: 88.1 nM
IC50 [2]: 106 nM
IC50 [3]: 97.7 nM
IC50 [4]: 80.2 nM
IC50 [5]: 49.8 nM
SMILES: O=C(C=Cn1cnc(-c2cc(C(F)(F)F)cc(C(F)(F)F)c2)n1)NNc1cnccn1 + CC(CO)NC(=O)c1cc(-c2ccc(Cl)cc2)nn(-c2cnn(C)c2)c1=O
viability, T/C [6]: 85.4%
viability, T/C [7]: 91%
viability, T/C [8]: 47%
viability, T/C [9]: 31.1%
viability, T/C [10]: 22.5%
viability, T/C [11]: 13.4%
viability, T/C [12]: 84.6%
viability, T/C [13]: 75.5%
viability, T/C [14]: 49.8%
viability, T/C [15]: 32%
viability, T/C [16]: 20.2%
viability, T/C [17]: 13.2%
viability, T/C [18]: 93.6%
viability, T/C [19]: 76.5%
viability, T/C [20]: 50.5%
viability, T/C [21]: 28.9%
viability, T/C [22]: 19.1%
viability, T/C [23]: 14.3%
viability, T/C [24]: 84.5%
viability, T/C [25]: 67.8%
viability, T/C [26]: 47%
viability, T/C [27]: 29.6%
viability, T/C [28]: 17.7%
viability, T/C [29]: 14.7%
viability, T/C [30]: 66.2%
viability, T/C [31]: 58.9%
viability, T/C [32]: 39.1%
viability, T/C [33]: 22.4%
viability, T/C [34]: 18.5%
viability, T/C [35]: 13.2%

IC50 [1]: < 31.6 nM
IC50 [2]: < 31.6 nM
IC50 [3]: < 31.6 nM
IC50 [4]: < 31.6 nM
IC50 [5]: < 31.6 nM
SMILES: COc1cc(Nc2ncc3c(n2)-c2ccc(Cl)cc2C(c2c(F)cccc2OC)=NC3)ccc1C(=O)O + CC(CO)NC(=O)c1cc(-c2ccc(Cl)cc2)nn(-c2cnn(C)c2)c1=O
viability, T/C [36]: 51%
viability, T/C [37]: 41.9%
viability, T/C [38]: 44.8%
viability, T/C [39]: 40.1%
viability, T/C [40]: 40.7%
viability, T/C [41]: 31.4%
viability, T/C [42]: 50.8%
viability, T/C [43]: 40.1%
viability, T/C [44]: 44.1%
viability, T/C [45]: 40.9%
viability, T/C [46]: 34.3%
viability, T/C [47]: 33.3%
viability, T/C [48]: 52.5%
viability, T/C [49]: 40.3%
viability, T/C [50]: 39.3%
viability, T/C [51]: 47.9%
viability, T/C [52]: 37.3%
viability, T/C [53]: 30%
viability, T/C [54]: 45.3%
viability, T/C [55]: 36.2%
viability, T/C [56]: 44.3%
viability, T/C [57]: 42%
viability, T/C [58]: 36.8%
viability, T/C [59]: 28.4%
viability, T/C [60]: 38.5%
viability, T/C [61]: 33.4%
viability, T/C [62]: 37.3%
viability, T/C [63]: 38.8%
viability, T/C [64]: 32.6%
viability, T/C [65]: 26.4%
